This passage reports IC50 results from US12582645B2, “Chemokine CXCR4 receptor modulators and uses related thereto” (Emory University, priority 2017, dated 2026).

One may read the pIC50 as the IC50 on a negative log10 scale, so that one unit is a factor of ten.

Molecules are shown by their SMILES. pIC50: −log10 of the molar value.

T1 sequence (P61073 whole entry): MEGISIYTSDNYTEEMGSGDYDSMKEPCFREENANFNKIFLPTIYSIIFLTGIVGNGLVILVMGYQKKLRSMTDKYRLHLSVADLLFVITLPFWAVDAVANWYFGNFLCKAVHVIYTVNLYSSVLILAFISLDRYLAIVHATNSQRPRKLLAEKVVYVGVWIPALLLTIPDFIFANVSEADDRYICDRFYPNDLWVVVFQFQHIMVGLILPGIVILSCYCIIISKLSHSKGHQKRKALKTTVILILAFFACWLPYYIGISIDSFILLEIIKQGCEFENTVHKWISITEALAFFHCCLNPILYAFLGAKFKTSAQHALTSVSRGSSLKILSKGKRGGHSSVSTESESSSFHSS

The assay concerns the target T1, CXCR4 (Homo sapiens, UniProt P61073).
T1 construct: Human T lymphoblast cells (CCRF-CEM) expressing endogenous CXCR4 receptors; endogenous in cells; host or cells: CCRF-CEM (human T lymphoblast cells)
The assay is described as follows: CXCR4-CEM calcium flux assay, antagonist mode (inhibition of SDF-1α-induced calcium flux). Type of assay: cell-based. As to conditions: CCRF-CEM cells expressing endogenous CXCR4, stimulated with 4 nM SDF-1α, read-out: CXCR4 Ca^2+ Flux IC50. As for the experimental part:
CXCR4-CEM Calcium Flux Assays
Exemplary compounds of the invention were tested for their ability to induce or inhibit calcium flux in CCRF-CEM cells, a human cell line that endogenously expresses CXCR4. Activation of CXCR4 stimulates G protein signaling which, in CCRF-CEM cells, causes a series of downstream events that leads to the release of intracellular calcium stores, or calcium flux. Calcium ion concentrations can be easily measured using a wide variety of […] calcium indicators and, as a result, calcium flux assays are commonly employed methods for measuring G protein-coupled receptor (GPCR) activity. Because the therapeutic potential of CXCR4 antagonists as anti-cancer agents likely relies on their ability to inhibit CXCR4-mediated G protein signaling, this assay was utilized as a first-pass measure of inhibitor potency.
The cells were then equilibrated to room temperature for 30 minutes before assay. […] For “antagonist mode” assessment, the cells are subsequently incubated for 25 minutes at room temperature. SDF-1α (R&D System Cat #350-NS/CF) was then added at a final concentration of 4 nM to stimulate the cells. Inhibition of SDF-1α-induced calcium flux was monitored by FDSS6000 for 90 seconds.
After correcting for background, EC50 values were determined. […] Inhibition data for the test compound over a range of concentrations was plotted as percentage inhibition of the test compound as compared to an internal control compound.
As to `CN1CCC(N(C)c2cccc3c2C[C@H](CN(C)[C@H]2CCCc4cccnc42)NC3)CC1` [EMU240], the negative logarithm of the IC50 (pIC50) is 7.87. On to `C/C(CN(C[C@H]1Cc2ccccc2CN1)[C@H]1CCCc2cccnc21)=C(/F)CN` [EMU126], for which the pIC50 was 5.72. The figure for `C[C@@H]1CN(c2cccc3c2CC(CN(C)[C@H]2CCCc4cccnc42)NC3)C[C@H](C)N1` (single isomer, unassigned) [EMU096 (Stereoisomer 2)] is 5.42; for `NCC1CC1CN(C[C@H]1Cc2ccccc2CN1)[C@H]1CCCc2cccnc21` (single isomer, unassigned) [EMU030 (Stereoisomer 2)] it is 7.72; for `C(=C\CN(C[C@H]1Cc2ccccc2CN1)[C@H]1CCCc2cccnc21)/CNCc1cccnc1` [EMU222, (E)-N1-(pyridin-3-ylmethyl)-N4-(((R)-1,2,3,4-tetrahydroisoquinolin-3-yl)methyl)-N4-((S)-5,6,7,8-tetrahydroquinolin-8-yl)but-2-ene-1,4-diamine] it is 7.03. For `CN(CC1Cc2ncccc2CN1)[C@H]1CCCc2cccnc21` (single isomer, unassigned) [EMU174 (Stereoisomer 1)], the negative-log IC50 (pIC50) was less than 4.48. The same measure for `NC/C=C/CN(CC1Cc2ncccc2CN1)[C@H]1CCCc2cccnc21` (single isomer, unassigned) [EMU192 (Stereoisomer 1)]: 6.83; for `CN(CC1Cc2c(cccc2NC2CCNCC2)CN1)[C@H]1CCCc2cccnc21` (single isomer, unassigned) [EMU044 (Stereoisomer 2)]: 5.77.
